Test results as given in patent publication US20160250221A1, “INHIBITORS OF FAPP2 AND USES THEREOF” (FONDAZIONE TELETHON, priority 2013, published 2016).
Entries after “also recorded” stand apart in the source; their conditions may differ.

Key:
[1] = test system: HeLa cells; test: GSL synthesis by 3H-sphingosine metabolic labelling; assay type: cell-based
[2] = test system: 3XHA-Gb3S and 3XHA-GM3S distribution; test: Immunofluorescence localization of HA-GM3S and HA-Gb3S; assay type: cell-based; details: BFA 5 μg/ml 30 min
Description: All immunofluorescence experiments were performed as described previously^1,14. Images are confocal optical slices obtained using an LSM 710 (Zeiss) confocal microscope. Colocalization analysis was performed as described in^14 or by using an object-based colocalization method included in the JACoP v2.0 application for ImageJ^16. In brief, individual mini-stacks in nocodazole-treated cells were considered as objects, whose mass-center position was calculated after segmentation, the perfect coincidence of mass-center positions for two distinct labelling (i.e. Gb3S/TGN46, or GM3S/TGN46) in a single ministack was considered as a positive colocalization event.

[3] = target: T1, FAPP2-HIS-SUMO-C-212 (Homo sapiens, UniProt Q96JA3); test: FRET GlcCer transfer assay with FAPP2-C212 (384-well); assay type: biochemical; details: for inhibition of FAPP2 transfer activity: 50 uM compound
T1 construct: the recombinant FAPP2 protein is FAPP2-GLTP-C212 or FAPP2 Full-Length (FL)
T1 sequence (Q96JA3 310-519 limits assumed): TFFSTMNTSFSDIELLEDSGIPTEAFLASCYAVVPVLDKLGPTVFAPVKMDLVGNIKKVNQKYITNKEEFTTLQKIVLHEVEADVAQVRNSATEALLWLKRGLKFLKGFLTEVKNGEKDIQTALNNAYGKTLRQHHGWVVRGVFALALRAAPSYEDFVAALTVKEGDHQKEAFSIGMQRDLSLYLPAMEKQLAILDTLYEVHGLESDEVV
Description: (§1) FAPP2 transfer activity has been evaluated using Fluorescence Resonance Energy Transfer. The FRET assay involves mixing of acceptor vesicles (formed by sonication of 1,2-dioleoyl-sn-glycero-3-phosphocholine (DOPC) suspended in buffer) with donor vesicles containing TopFLUOR-labeled GlcCer (1 mole %) and Di1C18 used as quencher (3 mole %), and recombinant FAPP2 protein (0.5 uM). Recovery of emission intensity at 520 nm (excitation at 485 nm) occurs during FAPP2-mediated transfer of GlcosylCeramide from quenched donor vesicles to unquenched acceptor vesicles. The assay has been performed using FAPP2-GLTP-C212 or FAPP2 Full-Length (FL). In order to conduct the high throughput inhibitor screen, the transfer activity assay was adapted to a microplate format (384 well plate) and read using Synergy Neo HTS Multi-Mode Microplate Reader. First, mixture containing 30 ul of acceptor small unilamellar vesicles, FAPP2 transport protein, and drug in buffer was added to each well in triplicate and read for 1 min to calculate the fluorescence baseline. Then 30 ul donor vesicles were added to each well and read for 15 or 30 mins. Since the increase in fluorescence emission occurs exclusively in presence of FAPP2 transport, the inhibition rate of each compound is evaluated by its ability to decrease the fluorescence emission.

[4] = target: T2, FAPP2-FL-SUMO (Homo sapiens, UniProt Q96JA3); test: FRET-based GlcCer transfer assay, Example 8 (96-well, full-length FAPP2); assay type: biochemical; details: for competition with the GlcCer transfer activity of FAPP2: final concentration 10 uM
T2 construct: FAPP2-FL-SUMO (recombinant FAPP2 full length protein tagged with small ubiquitin-related modifier); made in house; host or cells: Rosetta cells (E. coli, own knowledge)
T2 sequence (Q96JA3 1-519): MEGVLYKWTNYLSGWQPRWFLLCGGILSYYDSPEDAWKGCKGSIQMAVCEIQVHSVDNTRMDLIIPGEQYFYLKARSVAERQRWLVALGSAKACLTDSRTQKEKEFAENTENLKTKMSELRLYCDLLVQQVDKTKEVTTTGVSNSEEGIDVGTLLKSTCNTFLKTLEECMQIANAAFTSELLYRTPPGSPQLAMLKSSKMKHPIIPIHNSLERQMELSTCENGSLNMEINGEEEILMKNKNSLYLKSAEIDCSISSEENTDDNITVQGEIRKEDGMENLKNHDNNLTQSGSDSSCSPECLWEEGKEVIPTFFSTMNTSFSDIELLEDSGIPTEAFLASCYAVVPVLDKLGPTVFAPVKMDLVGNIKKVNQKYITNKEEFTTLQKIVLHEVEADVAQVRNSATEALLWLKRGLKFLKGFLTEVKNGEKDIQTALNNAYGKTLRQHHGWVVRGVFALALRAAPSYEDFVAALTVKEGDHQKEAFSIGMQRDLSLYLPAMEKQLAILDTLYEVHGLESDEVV
Description: Specifically, acceptor vesicles (formed by sonication of 1,2-dioleoyl-sn-glycero-3-phosphocholine (DOPC) were suspended in 10 mM NaH2PO4 buffer, pH 7.4, containing 1 mM dithiothreitol and 1 mM EDTA) and were incubated with donor vesicles containing BODIPY-labeled GlcCer (1 or 2 mole %, as indicated) and Di1C18 used as quencher (3 mole %), and recombinant FAPP2 protein (at the indicated concentrations).
Recovery of emission intensity at 520 nm (excitation at 485 nm) occurred during protein-mediated transfer of GlcCer from quenched donor vesicles to unquenched acceptor vesicles.
Phlorizin and Dapagliflozin were resuspended in DMSO (100 mM). The assay was conducted at four different concentrations (1 mM, 500 uM, 200 uM, 100 uM). Both FAPP2 WT and FAPP2 W407A were used to highlight possible non-specific effects of the drugs on fluorescence emission. First, mixture that contained FAPP2, acceptor small unilamellar vesicles and drug in buffer were added to 96 well plates, the plate was immediately loaded into the plate reader. Following 2 sec of shaking, the fluorescence emission @520 nm (excitation 485 nm) was measured at 10 sec intervals for 5 mins to calculate the baseline fluorescence. Then, donor vesicles were added to each well and read again for the indicated time. The experiments were repeated at least 3 times and each measurement performed in triplicate.
To screen and identify small molecules for drug development for Fabry disease treatment, a miniaturized FRET-based in vitro screening assay was developed to screen for small molecules that can inhibit FAPP2. The miniaturized FRET-based in vitro screening assay tests the ability of FAPP2 to transfer GlcCer from donor to acceptor and identifies small molecules able to inhibit the transfer activity of FAPP2. The flFAPP2 was produced as Sumo-fusion protein and assayed in Rosetta cells.

[5] = target: T3, FAPP2-FL-SUMO-HIS (Homo sapiens, UniProt Q96JA3); test: FRET GlcCer transfer assay with full-length FAPP2 (Example 9); assay type: biochemical; details: 50 uM compound; FAPP2-FL-SUMO-HIS at 0.5 uM; measured for 15 mins
T3 construct: The assay has been performed using FAPP2-GLTP-C212 or FAPP2 Full-Length (FL); made in house; host or cells: Rosetta cells (E. coli, own knowledge)
T3 sequence (Q96JA3 1-519): T2 sequence (Q96JA3 1-519)
Description: as §1

[6] = test system: ts045 VSV-G (VSVG) transport; assay type: cell-based; details: dicoumarol 200 μM
[7] = FAPP2-C212 at 0.5 uM, measured for 30 mins

`C[C@H]1CCC/C=C/[C@@H]2C[C@H](O)C[C@H]2[C@H](O)/C=C/C(=O)O1` [BFA, Brefeldin A] was tested, and the Gb3 synthesis ([1]; BFA 5 μg/mL) was “decreased”, the GM3 synthesis ([1]; BFA 5 μg/mL, parental cells) was “but not that of GM3” and the GM3 synthesis ([1]; HeLa cells overexpressing GM3S (HeLa-GM3S), BFA 5 μg/mL) was “became sensitive”. For the same molecule, the “redistribution of GM3S to the ER” value [2] was “redistributed”.
In the case of `CCc1oc2ccccc2c1C(=O)c1cc(Br)c(O)c(Br)c1` [Benzbromarone], the “ranking as FAPP2 inhibitor in vitro” value [3] is reported as “one of the most potent FAPP2 inhibitors” and the “inhibition of FAPP2 transfer activity” value [3, 7] is reported as 80%.
For `CCCCCCCCCCCCC/C=C/[C@@H](O)[C@H](COC1OC(CO)C(O)C(O)C1O)NC(=O)CCCCCCC` (some centres unmarked) [C8-GlcCer], the “competition with the GlcCer transfer activity of FAPP2” value [4] was “able to inhibit transfer by competition” and the “competition with the GlcCer transfer activity of FAPP2” value ([4]; listed as C8-G1Cer) was “competes”.
`CC(C)=CCC/C(C)=C/CC/C(C)=C/Cc1c(O)cc(C)c(C(=O)O)c1O` [Grifolic Acid] was tested, and the “ranking as FAPP2 inhibitor in vitro” value [3] was “most active FAPP2 inhibitor in vitro”, the “effect on FAPP2-mediated GlcCer transfer” value ([3]; 50 uM, FAPP2-C212 at 0.5 uM, measured for 30 mins) was “significantly reduced” and the “effect on FAPP2-mediated GlcCer transfer” value ([3]; 100 uM, FAPP2-C212 at 0.5 uM, measured for 30 mins) was “significantly reduced”.
In the case of `O=C(O)Cn1nnc(-c2cc(N3CCC(Oc4cc(F)ccc4Br)CC3)no2)n1` [MK-8245], the “inhibition of FAPP2 transfer activity” value [5] is reported as 40%.
For `O=C(CCc1ccc(O)cc1)c1c(O)cc(O)cc1O[C@@H]1O[C@H](CO)[C@@H](O)[C@H](O)[C@H]1O` [Phlorizin], the “inhibition of GlcCer transfer activity of FAPP2” value ([4]; four drug concentrations (100 uM, 200 uM, 500 uM, 1 mM)) was “can inhibit; also recorded: inhibits the GlcCer transfer”.
In the case of `O=C(Nc1cccc2c(=O)cc(-c3nn[nH]n3)oc12)c1ccc(OCCCCc2ccccc2)cc1` [Pranlukast], the “inhibition of FAPP2 transfer activity” value [3, 7] is reported as 90%.
`CCOc1cc(CC(=O)N[C@@H](CC(C)C)c2ccccc2N2CCCCC2)ccc1C(=O)O` [Repaglinide] was tested, and the “inhibition of FAPP2 transfer activity” value [5] was 50%.
`Cc1cc(OCCCS(C)(=O)=O)cc(C)c1-c1cccc(COc2ccc3c(c2)OCC3CC(=O)O)c1` (centres unmarked) [TAK-875] was tested, and the “effect on FAPP2-mediated GlcCer transfer” value ([3]; 100 uM, FAPP2 at 0.5 uM, measured for 15 mins) was “significantly reduced”.
`CCSc1ccc2c(c1)N(CCCN1CCN(C)CC1)c1ccccc1S2` [Thiethylperazine] was tested, and the “inhibition of FAPP2 transfer activity” value [3, 7] was 60%.
In the case of `COc1cc(C(=O)NS(=O)(=O)c2ccccc2C)ccc1Cc1cn(C)c2ccc(NC(=O)OC3CCCC3)cc12` [Zafirlukast], the “inhibition of FAPP2 transfer activity” value [3, 7] is reported as 90%.
In the case of `O=c1oc2ccccc2c(O)c1Cc1c(O)c2ccccc2oc1=O` [dicoumarol], the GM3 synthesis ([1]; dicoumarol 200 μM, 3 hours 3H-sphingosine pulse) is reported as “strongly inhibited” and the “intra-Golgi progression of VSVG” value [6] is reported as “suppressed”.
